Assay results reported in patent publication US12059428B2, “Methods of treating tumor metastasis” (TARIS Biomedical LLC, priority 2017, dated 2024).
“Also recorded” adds a separate entry of the source.

Assays:
[1] = prior studies in animals and humans; cited from earlier work
NBTII flank tumors = assay: Gemcitabine immunogenicity study, NBTII bladder and flank tumors (Example 2); format: in vivo, rat
Source text: Gemcitabine immunogenicity was studied in immunocompetent rats with NBTII cells injected into the bladder and subcutaneous flank tissue; flank tumors were implanted either simultaneously with bladder tumors or 14 days after bladder tumor injection. Control groups received only flank tumors, N=15, or bladder and flank tumors with vehicle perfusion, N=10. […]

[2] = test system: activated CD4 and CD8 cells in the spleen; assay: Activated CD4 and CD8 cells in the spleen by flow cytometry, NBT-II tumor rats; format: in vivo, rat; settings: vs untreated tumor rats, FIG. 11
Method: Rats were inoculated with NBT-II tumors and the number of activated CD4 and CD8 cells in the spleen was assessed by flow cytometry either in rats treated with intravesicular gemcitabine or untreated rats. […] Intravesicular gemcitabine increased the percentage of activated CD4 and CD8 cells, thus indicating activation of the immune system against the tumor.

[3] = test system: tumor T regulatory cells to T effector cells; assay: Flow cytometric immunocyte analysis of residual NBTII bladder tumors; format: in vivo, rat; settings: residual NBTII tumors from immunocompetent rats
Method: (§1) The direct effects of low dose gemcitabine were studied in athymic rats with human derived MIBC cells, T24-TurboFP635, injected into the bladder. After 3 days tumor growth, gemcitabine or vehicle was perfused into the bladder over 5 days, yielding nominal urine concentrations of 0, 20, 40, or 80 ug/ml gemcitabine, N=6 per group. Tumor bioluminescence was measured on day 5. A companion study in immunocompetent rats inoculated with syngeneic NBTII bladder tumors, provided tumors for immunocyte analysis.

IL-10 = IL-10 levels in rats inoculated with NBTII bladder tumors; format: in vivo, rat; settings: spleens of treated animals, FIG. 9
Source text: (§2) IL-10 increases associated with acute treatment are known to facilitate T cell mediated antitumor effects.

TNF-α = TNF-α levels in rats inoculated with NBTII bladder tumors; format: in vivo, rat; settings: FIG. 10
Source text: as §2

[4] = test system: subcutaneous NBTII tumors; assay: Varying gemcitabine bladder exposure, simultaneously implanted bladder and subcutaneous NBTII tumors (Example 3); format: in vivo, rat; settings: perfusion 45 and 90 μg/ml, nominal urine 10 and 20 μg/ml, FIG. 6
Source text: Extending the investigation described in EXAMPLE 1, additional studies of NBTII bladder and subcutaneous tumors evaluated the effect of varying gemcitabine bladder exposures with and without simultaneous bladder tumor implantation.
In one set of experiments, gemcitabine perfusion concentrations were varied to evaluate the effect of differing bladder tumor exposures on subcutaneous tumor growth rates. Bladder cannulated rats (n=10 per treatment group) with simultaneously implanted bladder and subcutaneous NBTII tumors were studied over two treatment cycles, each separated by a 7-day drug free period, as used in the EXAMPLE 1 study.
Gemcitabine perfusion concentrations of 45 μg/ml and 90 μg/ml were tested, producing nominal urine concentrations of 10 μg/ml and 20 μg/ml respectively, representing […] reductions vs the original study gemcitabine urine concentrations. Subcutaneous tumor growth was measured during the study as previously.

[5] = test system: CD4+FOXP3+ and CD8+FOXP3+ regulatory T cells; assay: Splenic regulatory T cells by flow cytometry, NBT-II tumor rats; format: in vivo, rat; settings: vs untreated tumor rats, FIG. 12
Source text: The percentage splenic of regulatory T cells was assed using flow cytometry. […] Intravesicular gemcitabine increased the percentage of activated Cn both CD4+FOXP3+ and CD8+FOXP3+ regulatory T cells, thus indicating activation of the systemic immune system against the tumor.

[6] = test system: T24-TurboFP635 human derived MIBC cells; assay: Bladder tumor bioluminescence in athymic rats with T24-TurboFP635 cells injected into the bladder; format: in vivo, rat; settings: for reduction in bladder tumor bioluminescence vs control: athymic rats, 5-day perfusion, day 5
Method: as §1

NBTII tumor cells = assay: Bladder tumor growth after inoculation with NBTII tumor cells; format: in vivo, rat; settings: average urine concentration 40 ug/mL
TGF-β = assay: Circulating TGF-β in rats inoculated with NBTII bladder tumors; format: in vivo, rat; settings: low concentration intravesical perfusion, FIG. 8
Source text: TGF-β drives Treg cell expression which in turn suppresses both local and systemic CD4 and CD8 T cell response against the bladder tumor.

[7] = test system: subcutaneous NBTII tumors; assay: Bladder and flank NBTII tumor model, subcutaneous tumor volume by caliper (Example 1); format: in vivo, rat
Source text: Standardized bladder perfusion system was modified to introduce bladder and subcutaneous tumors. The bladders were first surgically cannulated by placing a catheter into the bladder, fixed in place using a suture, the free end exteriorized between the scapulae.
The animals were allowed to heal. Bladder tumors were established by injecting tumor cell suspension directly into bladder wall. Subcutaneous tumor was established by injecting tumor cell suspension under skin abdominal flank.
The bladder and flank tumor model used in this study utilized immunocompetent Wistar rats, 7 to 8 weeks in age and weighing between 150 to 200 g. The bladders were first surgically cannulated by placing a P50 catheter into the bladder dome which was fixed in place using a purse string suture and the free end exteriorized between the scapulae. […] Per study protocol, different groups of bladder cannulated rats were next inoculated with NBTII tumor cells (Nara Bladder Tumor No. 2; ATCC® CRL1655™). This is a rat syngeneic bladder tumor cell line originally derived from tumors induced with N-butyl-N-(4-hydroxybutyl) nitrosamine. In certain treatment groups, the tumor cells were injected directly into the bladder wall as a 50 uL cell suspension of approximately 2×10^6 cells. […]
Group 4 (SCT with BT, N=10) animal bladders were cannulated on study Day 0 and on study Day 4 both the bladder and abdominal flank were inoculated with NBTII tumor cells. Gemcitabine HCl in PBS (180 ug/mL) was perfused via the cannula into the bladder beginning on study Day 6 at a constant rate of 0.3 mL per hour for 5 days and again beginning on Day 20 for an additional 5 day treatment period.
Subcutaneous tumor volumes were serially measured post inoculation every two or three days using a caliper method.

[8] = test system: subcutaneous NBTII tumors; assay: Bladder cannulated rats with only subcutaneous NBTII tumors, no bladder tumor (Example 4); format: in vivo, rat; settings: two perfusion cycles, FIG. 7
Method: To confirm the observed effects on subcutaneous tumor growth is the result of the local action of intravesical gemcitabine on bladder tumors, an additional series of experiments were completed in which bladder cannulated rats were implanted with only subcutaneous NBTII tumors. The animals were then treated with two perfusion cycles of intravesical gemcitabine as in the previous experiments. […] These findings both confirm the presence of a bladder tumor is required and the observed reductions in subcutaneous tumors are mediated immunologically.

[9] = Gemcitabine urine concentration during intravesicular perfusion; format: in vivo, rat; settings: intravesicular perfusion of 180 ug/ml solution
[10] = rats with concomitant bladder tumors

average gemcitabine urine concentration [9]: 40 µg/mL
Structure (SMILES): Nc1ccn([C@@H]2O[C@H](CO)[C@@H](O)C2(F)F)c(=O)n1 [gemcitabine, 2′,2′-difluorodeoxycytidine]
systemic drug concentrations after low concentrations of intravesical gemcitabine [1]: do not produce therapeutic drug concentrations systemically
flank tumor growth arrest during the 7-day drug free period (NBTII flank tumors; 60 ug/ml group): this effect was maintained
flank tumor response, implantation delayed to 3 days before the second perfusion (NBTII flank tumors; flank tumor implanted 14 days after bladder tumor): no tumor growth, but immediate tumor ablation
flank tumor response to the second perfusion (NBTII flank tumors; flank tumors implanted simultaneously with bladder tumors): rapid flank tumor ablation in all but one animal
flank tumor growth during the first perfusion cycle (NBTII flank tumors; [10]): fully arrested
flank tumor size relative to controls during the first perfusion cycle (NBTII flank tumors; [10]): 50 % of controls
percentage of activated CD4 cells in the spleen [2]: increased
percentage of activated CD8 cells in the spleen [2]: increased
decrease in the proportion of tumor T regulatory cells to T effector cells [3]: 85.2%
IL-10 levels (IL-10): increased IL-10 levels
TNF-α level (TNF-α): moderately increased
subcutaneous tumor volume at reduced urine concentrations [4]: dose related reduction in subcutaneous tumor volume
subcutaneous tumor volume during the second treatment cycle [4]: significantly decreased to near ablation
percentage of splenic CD4+FOXP3+ regulatory T cells [5]: increased
percentage of splenic CD8+FOXP3+ regulatory T cells [5]: increased
reduction in bladder tumor bioluminescence vs control ([6]; nominal urine concentration 20 ug/ml): 47.6%
reduction in bladder tumor bioluminescence vs control ([6]; nominal urine concentration 40 ug/ml): 70.5%
reduction in bladder tumor bioluminescence vs control ([6]; nominal urine concentration 80 ug/ml): 91.2%
bladder tumor growth after inoculation with T24 tumor cells ([6]; average urine concentration 40 ug/mL): significantly reduce bladder tumor growth
bladder tumor growth after inoculation with NBTII tumor cells (NBTII tumor cells): significantly reduce bladder tumor growth
circulating TGF-β plasma concentration (TGF-β): suppressed TGF-β production
subcutaneous tumor volume during second 5-day intravesical perfusion ([7]; Group 3 (SCT after BT): subcutaneous tumor implanted Day 17 after first perfusion, 180 ug/mL): all subcutaneous tumors were undetectable by palpation; also recorded: immediately declined in tumor volume until the tumors were no longer detectable
eradication of subcutaneous tumors upon retreatment ([7]; Group 3 and 4 combined, two 5-day cycles of 180 ug/mL): complete eradication of all but one subcutaneous tumor
subcutaneous tumor volume after second 5-day intravesical treatment ([7]; Group 4 (SCT with BT), 180 ug/mL, second cycle from Day 20): all but one tumor was undetectable by palpation
subcutaneous tumor growth over the 7-day drug free period ([7]; Group 4 (SCT with BT), after first 5-day perfusion of 180 ug/mL): failed to return to their initial growth rate
subcutaneous tumor growth by the end of the first intravesical perfusion period ([7]; Group 4 (SCT with BT): bladder and subcutaneous tumors Day 4, 180 ug/mL perfused 0.3 mL per hour for 5 days): dramatically slowed or fully arrested; also recorded: continued to grow for several days prior to arresting
subcutaneous tumor growth in rats without bladder tumor [8]: continued to grow throughout both treatment cycles
